Reference: publication PMC3171192 (Journal of medicinal chemistry, 2011)
*1 amine or outer side, *2 acyl side, *3 side chain or, on linkers, in order; H or OH if unused. Where a SMILES comes first, the peptide text is derived from it. [ ]: non-standard residue; d: D form. X1 = O=C(CCc1cccc2c1oc1c(CCN[*:1])cccc12)[*:2]

Assays:
[1] = test system: Caco-2 cells; assay: CellTiter-Glo cell viability assay, Caco-2 cells
[2] = test system: Jurkat cells; assay: CellTiter-Glo cell viability assay, Jurkat cells
[3] = target: T1, CD2–CD58 interaction (adhesion between T cells (Jurkat, CD2) and Caco-2 cells (CD58)) (Homo sapiens, UniProt P19256); assay: Lymphocyte-epithelial adhesion assay; assay type: cell-based; settings: concentration range 0.0005 to 150 µM
T1 sequence (P19256 29-250): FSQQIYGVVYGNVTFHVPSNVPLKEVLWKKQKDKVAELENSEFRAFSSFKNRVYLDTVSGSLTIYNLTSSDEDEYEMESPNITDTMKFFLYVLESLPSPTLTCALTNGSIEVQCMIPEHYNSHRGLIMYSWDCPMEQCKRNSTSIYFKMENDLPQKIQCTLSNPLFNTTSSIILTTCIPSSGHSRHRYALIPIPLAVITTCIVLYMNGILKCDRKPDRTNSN

Row | cell adhesion inhibition in the lymphocyte epithelial assay [3] | Compound | toxicity effects on Caco-2 cells [1] | toxicity effects on T cells [2]
1 |  | CC[C@H](C)[C@@H]1NC(=O)[C@H](Cc2ccc(O)cc2)NC(=O)[C@H](CC(=O)O)NC(=O)CCc2cccc3c2Oc2c(cccc2-3)CCNC(=O)[C@H](CC(=O)O)NC(=O)[C@H](CC(=O)O)NC(=O)[C@H](CCCCN)NC1=O [Peptide 7] (cyclo(DD[X1]DYIK)) | did not show any toxicity effects | did not show any toxicity effects
2 | ~18% | KGKTDAISVKAI-NH2 [control peptide] |  | 
